Measurements taken from patent publication US20060281766A1 (priority 2003, published 2006).
Where two headings read alike, the source gives them in different places.

Tested on: Phytophthora infestans
Format: in vivo
Conditions: individual active compound, tomato leaves, infected next day, assessed after 6 days

Compound	Efficacy in % of the untreated control (0.25 ppm in the spray liquor) [%]	Efficacy in % of the untreated control (16 ppm in the spray liquor) [%]	Efficacy in % of the untreated control (1 ppm in the spray liquor) [%]
CC1CCN(c2c(-c3c(F)cccc3Cl)c(Cl)nc3ncnn23)CC1 [A]	0	0	
C[C@H](Nc1c(-c2c(F)cc(F)cc2F)c(Cl)nc2ncnn12)C(F)(F)F [B]	0	0	
CNC(=O)/C(=N/OC)c1ccccc1COc1cc(C)ccc1C [I, dimoxystrobin]	0		56
CC1CCN(c2c(-c3c(F)cc(F)cc3F)c(Cl)nc3ncnn23)CC1 [II, 5-chloro-7-(4-methylpiperidin-1-yl)-6-(2,4,6-trifluorophenyl)-[1,2,4]tri-azolo[1,5-a]pyrimidine]	0	0	
